# Measurements reported in US20110044938A1 (NYCOMED GMBH, priority 2006, published 2011).
# What was measured:
# [1] = test system: subclones of RKO colon adenocarcinoma cells (RKOp27 or RKOp21) arrested by Ponasterone A; test: Alamar Blue cell viability assay, cell cycle specific mode of action: cells arrested by ectopic p27Kip1 induced by Ponasterone A versus proliferating cells; type: cell-based; details: Homo sapiens, RKO p27 induced (arrested) cells, 10 μM Ponasterone A, 72 hours, value = class bound given in Table A, read-out: −logIC50 RKO p27 induced (arrested) (converted)
# Summary of the method: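 RKOp27 or RKOp21 cells, 15000/well in DMEM/10% FCS, either arrested by p27Kip1 induced with 10 μM Ponasterone A or proliferating without inducer; compound added after 24 h, 72 h at 37° C. Alamar Blue fluorescence (544/590 nm), viability as % of untreated cells; −log IC50 reported.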
# [2] = test system: RKO (RKOp27) human colon adenocarcinoma cells; test: Alamar Blue cell viability assay, anti-proliferative/cytotoxic activity on proliferating RKO subclones; type: cell-based; details: RKOp27, 72 h, RKO p27 uninduced (proliferating) cells, value = class bound given in Table A, read-out: −logIC50 RKO p27 uninduced (proliferating) (converted)
# Summary of the method: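 RKOp27 subclones (5000 cells/well) were exposed 24 h after seeding to semi-log compound dilutions in DMEM with 10% FCS, in quadruplicate, for 72 h at 37 °C. Viability was read by Alamar Blue fluorescence (544/590 nm) relative to untreated cells (1% DMSO medium). IC50 came from concentration-effect curves and is reported as −log IC50 [mol/l].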
SMILES,IC50 [1] [µM],IC50 [2] [µM]
"CCOc1ccccc1CCC(=O)Nc1sc2c(c1C#N)CCC(COC(=O)NCc1conc1C)C2 (stereo not shown) [Example 198, (3-Methyl-isoxazol-4-ylmethyl)-carbamic acid 3-cyano-2-[3-(2-ethoxy-phenyl)-propanoylamino]-4,5,6,7-tetrahydro-benzo[b]thiophen-6-ylmethyl ester]",≥ 100,≤ 0.501
"CCOc1ccccc1CCC(=O)Nc1sc2c(c1C#N)CCC(COC(=O)NCc1nccs1)C2 (stereo not shown) [Example 199, Thiazol-2-ylmethyl-carbamic acid 3-cyano-2-[3-(2-ethoxy-phenyl)-propanoylamino]-4,5,6,7-tetrahydro-benzo[b]thiophen-6-ylmethyl ester]",≥ 100,≤ 0.501
"CCOc1ccccc1CCC(=O)Nc1sc2c(c1C#N)CCC(COC(=O)NCc1nnc(C)o1)C2 (stereo not shown) [Example 200, (5-Methyl-[1,3,4]oxadiazol-2-ylmethyl)-carbamic acid 3-cyano-2-[3-(2-ethoxy-phenyl)-propanoylamino]-4,5,6,7-tetrahydro-benzo[b]thiophen-6-ylmethyl ester]",≥ 100,0.501 to 2
"CCOc1ccccc1CCC(=O)Nc1sc2c(c1C#N)CCC(COC(=O)N1CCCC1)C2 (stereo not shown) [Example 201, Pyrrolidine-1-carboxylic acid 3-cyano-2-[3-(2-ethoxy-phenyl)-propanoylamino]-4,5,6,7-tetrahydro-benzo[b]thiophen-6-ylmethyl ester]",≥ 100,≤ 0.501
"CCOc1ccccc1CCC(=O)Nc1sc2c(c1C#N)CCC(COC(=O)OCc1ccsn1)C2 (stereo not shown) [Example 202, Carbonic acid 3-cyano-2-[3-(2-ethoxy-phenyl)-propanoylamino]-4,5,6,7-tetrahydro-benzo[b]thiophen-6-ylmethyl ester isothiazol-3-ylmethyl ester]",≥ 100,≤ 0.501
"CCOc1ccccc1CCC(=O)Nc1sc2c(c1C#N)CCC(COC(=O)OCc1nccs1)C2 (stereo not shown) [Example 203, Carbonic acid 3-cyano-2-[3-(2-ethoxy-phenyl)-propanoylamino]-4,5,6,7-tetrahydro-benzo[b]thiophen-6-ylmethyl ester thiazol-2-ylmethyl ester]",≥ 100,≤ 0.501
"CCOc1ccccc1CCC(=O)Nc1sc2c(c1C#N)CCC(OC(=O)NCc1cnoc1C)C2 (stereo not shown) [Example 204, (5-Methyl-isoxazol-4-ylmethyl)-carbamic acid 3-cyano-2-[3-(2-ethoxy-phenyl)-propanoylamino]-4,5,6,7-tetrahydro-benzo[b]thiophen-6-yl ester]",≥ 100,≤ 0.501
"CCOc1ccccc1CCC(=O)Nc1sc2c(c1C#N)CCC(OC(=O)NCc1conc1C)C2 (stereo not shown) [Example 205, (3-Methyl-isoxazol-4-ylmethyl)-carbamic acid 3-cyano-2-[3-(2-ethoxy-phenyl)-propanoylamino]-4,5,6,7-tetrahydro-benzo[b]thiophen-6-yl ester]",≥ 100,≤ 0.501
"CCOc1ccccc1CCC(=O)Nc1sc2c(c1C#N)CCC(OC(=O)NCc1nccs1)C2 (stereo not shown) [Example 206, Thiazol-2-ylmethyl-carbamic acid 3-cyano-2-[3-(2-ethoxy-phenyl)-propanoylamino]-4,5,6,7-tetrahydro-benzo[b]thiophen-6-yl ester]",≥ 100,≤ 0.501
"CCOc1ccccc1CCC(=O)Nc1sc2c(c1C#N)CCC(OC(=O)NCc1ccno1)C2 (stereo not shown) [Example 207, Isoxazol-5-ylmethyl-carbamic acid 3-cyano-2-[3-(2-ethoxy-phenyl)-propanoylamino]-4,5,6,7-tetrahydro-benzo[b]thiophen-6-yl ester]",≥ 100,≤ 0.501
"CCOc1ccccc1CCC(=O)Nc1sc2c(c1C#N)CCC(OC(=O)N1CCCC1)C2 (stereo not shown) [Example 208, Pyrrolidine-1-carboxylic acid 3-cyano-2-[3-(2-ethoxy-phenyl)-propanoylamino]-4,5,6,7-tetrahydro-benzo[b]thiophen-6-yl ester]",≥ 100,≤ 0.501
"CCOc1ccccc1CCC(=O)Nc1sc2c(c1C#N)CCC(OC(=O)NCc1ccnn1CC)C2 (stereo not shown) [Example 209, (2-Ethyl-2H-pyrazol-3-ylmethyl)-carbamic acid 3-cyano-2-[3-(2-ethoxy-phenyl)-propanoylamino]-4,5,6,7-tetrahydro-benzo[b]thiophen-6-yl ester]",≥ 100,≤ 0.501

# Further lines, with some results ahead:
IC50 [1] [µM],SMILES,IC50 [2] [µM]
≥ 100,"CCOc1ccccc1CCC(=O)Nc1sc2c(c1C#N)CCC(OC(=O)NCc1nc(C)cs1)C2 (stereo not shown) [Example 210, (4-Methyl-thiazol-2-ylmethyl)-carbamic acid 3-cyano-2-[3-(2-ethoxy-phenyl)-propanoylamino]-4,5,6,7-tetrahydro-benzo[b]thiophen-6-yl ester]",0.501 to 2
≥ 100,"CCOc1ccccc1CCC(=O)Nc1sc2c(c1C#N)CCC(OC(=O)OCc1cncs1)C2 (stereo not shown) [Example 211, Carbonic acid 3-cyano-2-[3-(2-ethoxy-phenyl)-propanoylamino]-4,5,6,7-tetrahydro-benzo[b]thiophen-6-yl ester thiazol-5-ylmethyl ester]",0.501 to 2
≥ 100,"CCOc1ccccc1CCC(=O)Nc1sc2c(c1C#N)CCC(COC(=O)NCc1cnoc1C)C2 (stereo not shown) [Example 212, (5-Methyl-isoxazol-4-ylmethyl)-carbamic acid 3-cyano-2-[3-(2-ethoxy-phenyl)-propanoylamino]-4,5,6,7-tetrahydro-benzo[b]thiophen-6-ylmethyl ester]",≤ 0.501
≥ 100,"CCOc1ccccc1CCC(=O)Nc1sc2c(c1C#N)CCC(COC(=O)NCc1csc(C)n1)C2 (stereo not shown) [Example 213, (2-Methyl-thiazol-4-ylmethyl)-carbamic acid 3-cyano-2-[3-(2-ethoxy-phenyl)-propanoylamino]-4,5,6,7-tetrahydro-benzo[b]thiophen-6-ylmethyl ester]",≤ 0.501
≥ 100,"CCOc1ccccc1CCC(=O)Nc1sc2c(c1C#N)CCC(COC(=O)NCc1nc(C)cs1)C2 (stereo not shown) [Example 214, (4-Methyl-thiazol-2-ylmethyl)-carbamic acid 3-cyano-2-[3-(2-ethoxy-phenyl)-propanoylamino]-4,5,6,7-tetrahydro-benzo[b]thiophen-6-ylmethyl ester]",≤ 0.501
≥ 100,"CCOc1ccccc1CCC(=O)Nc1sc2c(c1C#N)CCC(COC(=O)OCc1cncs1)C2 (stereo not shown) [Example 215, Carbonic acid 3-cyano-2-[3-(2-ethoxy-phenyl)-propanoylamino]-4,5,6,7-tetrahydro-benzo[b]thiophen-6-ylmethyl ester thiazol-5-ylmethyl ester]",≤ 0.501
≥ 100,"CCOc1ccccc1CCC(=O)Nc1sc2c(c1C#N)CCC(COC(=O)N1CCOCC1)C2 (stereo not shown) [Example 216, Morpholine-4-carboxylic acid 3-cyano-2-[3-(2-ethoxy-phenyl)-propanoylamino]-4,5,6,7-tetrahydro-benzo[b]thiophen-6-ylmethyl ester]",≤ 0.501
≥ 100,"COCCOC(=O)OC1CCc2c(sc(NC(=O)CCc3cccc(OC)c3)c2C#N)C1 (stereo not shown) [Example 217, Carbonic acid 3-cyano-2-[3-(3-methoxy-phenyl)-propanoylamino]-4,5,6,7-tetrahydro-benzo[b]thiophen-6-yl ester 2-methoxy-ethyl ester]",0.501 to 2
